The text below walks through data of patent publication US8772504B2, “Substituted benzoxazole, benzimidazole, oxazolopyridine and imidazopyridine derivatives as gamma secretase modulators” (Janssen Pharmaceuticals, Inc., priority 2009, dated 2014).

As a reminder, the IC50 is the midpoint of a concentration-inhibition curve. A higher IC50 goes with weaker potency in that assay.

Assay [1] relates to Aβtotal. As to the kind of experiment: Screening for γ-secretase-modulating activity, Method 2: Aβtotal Alphalisa on SKNBE2 cell supernatant. Format: cell-based. Particulars: Method 2, Table 3c, SKNBE2 cells carrying APP 695 wild type, overnight incubation. In short, it runs like this:
(§1)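 SKNBE2 cells expressing wild-type APP695, plated at 10^4 cells/well with compound at several concentrations and incubated overnight at 37° C. Aβ42 (C-terminal capture, N-terminal biotinylated detection) and Aβtotal (N-terminal/4G8 pair) measured in supernatant by AlphaLISA. IC50 from 4-parameter fit of percent of compound-free control.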
On the technique in general: Bead proximity is the source of the signal in Alpha formats.

The test system of assay [2] is Aβ42. The assay is described as follows: In vivo efficacy Method 2: brain soluble Aβ42 by ELISA. On the set-up: species or system mouse. Particulars: Table 4b, single oral dose, overnight fasted non-transgenic animals, sacrificed after 4 h, soluble fraction of brain homogenates. An excerpt:
(§2) To determine whether acute administration of an Aβ42 lowering agent would reduce Aβ42 levels in vivo, non-transgenic rodents, e.g. mice or rats were used. Animals treated with the Aβ42 lowering agent were examined and compared to those untreated or treated with vehicle and brain levels of soluble Aβ42 and total Aβ were quantitated by standard techniques, for example, using ELISA. Treatment periods varied from hours (h) to days and were adjusted based on the results of the Aβ42 lowering once a time course of onset of effect could be established.
(§3) A typical protocol for measuring Aβ42 lowering in vivo is shown but it is only one of many variations that could be used to optimize the levels of detectable Aβ. For example, Aβ42 lowering compounds were formulated in 20% of Captisol® (a sulfobutyl ether of β-cyclodextrin) in water or 20% hydroxypropyl β cyclodextrin. The Aβ42 lowering agents were administered as a single oral dose or by any acceptable route of administration to overnight fasted animals. After 4 h, the animals were sacrificed and Aβ42 levels were analysed.
(§4) Blood was collected by decapitation and exsanguinations in EDTA-treated collection tubes. Blood was centrifuged at 1900 g for 10 minutes (min) at 4° C. and the plasma recovered and flash frozen for later analysis. The brain was removed from the cranium and hindbrain. The cerebellum was removed and the left and right hemisphere were separated. The left hemisphere was stored at −18° C. for quantitative analysis of test compound levels. The right hemisphere was rinsed with phosphate-buffered saline (PBS) buffer and immediately frozen on dry ice and stored at −80° C. until homogenization for biochemical assays.
(§5) Mouse brains from non-transgenic animals were resuspended in 8 volumes of 0.4% DEA (diethylamine)/50 mM NaCl containing protease inhibitors (Roche-11873580001 or 04693159001) per gram of tissue, e.g. for 0.158 g brain, add 1.264 ml of 0.4% DEA. All samples were homogenized in the FastPrep-24 system (MP Biomedicals) using lysing matrix D (MPBio #6913-100) at 6 m/s for 20 seconds. Homogenates were centrifuged at 221.300×g for 50 min. The resulting high speed supernatants were then transferred to fresh eppendorf tubes. Nine parts of supernatant were neutralized with 1 part 0.5 M Tris-HCl pH 6.8 and used to quantify Aβtotal and Aβ42.
(§6) To quantify the amount of Aβtotal and Aβ42 in the soluble fraction of the brain homogenates, Enzyme-Linked-Immunosorbent-Assays were used . Briefly, the standards (a dilution of synthetic Aβ1-40 and Aβ1-42, Bachem) were prepared in 1.5 ml Eppendorf tube in Ultraculture, with final concentrations ranging from 10000 to 0.3 pg/ml. The samples and standards were co-incubated with HRPO-labelled N-terminal antibody for Aβ42 detection and with the biotinylated mid-domain antibody 4G8 for Aβtotal detection. 50 μl of conjugate/sample or conjugate/standards mixtures were then added to the antibody-coated plate (the capture antibodies selectively recognize the C-terminal end of Aβ42, antibody JRF/cAβ42/26, for Aβ42 detection and the N-terminus of Aβ, antibody JRF/rAβ/2, for Aβtotal detection). The plate was allowed to incubate overnight at 4° C. in order to allow formation of the antibody-amyloid complex. Following this incubation and subsequent wash steps the ELISA for Aβ42 quantification was finished by addition of Quanta Blu fluorogenic peroxidase substrate according to the manufacturer's instructions (Pierce Corp., Rockford, Ill.). A reading was performed after 10 to 15 min (excitation 320/emission 420).
In this model at least 20% Aβ42 lowering compared to untreated animals would be advantageous.
For orientation: In an ELISA, binding on a coated surface is turned into a signal by an enzyme label.

The subject of assay [3] is Aβ42. As to the kind of experiment: Screening for γ-secretase-modulating activity, Method 2: Aβ42 Alphalisa on SKNBE2 cell supernatant. The class given is cell-based. The conditions noted are these: Method 2, Table 3c, SKNBE2 cells carrying APP 695 wild type, overnight incubation. An outline of the steps: as §1
The test system of assay [4] is Aβtotal. The assay is described as follows: In vivo efficacy Method 2: brain soluble Aβtotal by ELISA. Particulars: Table 4b, single oral dose, overnight fasted non-transgenic animals, sacrificed after 4 h, soluble fraction of brain homogenates. On the set-up: species or system mouse.
Excerpt: as §2, §3, §4, §5, §6
For Aβtotal detection, a Streptavidine-Peroxidase-Conjugate was added, followed 60 min later by an additional wash step and addition of Quanta Blu fluorogenic peroxidase substrate according to the manufacturer's instructions (Pierce Corp., Rockford, Ill.). A reading was performed after 10 to 15 min (excitation 320 nm/emission 420 nm).

SMILES strings stand for the structures. Bounds are passed on as bounds.

As to `Cc1cn(-c2ccc(Nc3nc(C)cc4c3nc(-c3cccc(N(C)C)c3)n4C)cc2F)cn1` [Compound 142], the IC50 with Aβtotal [1] was found to be 9330 nM; with Aβ42 [3] it was 15 nM. Further, the “Aβ42 (% Ctrl) _Mean” value in the assay with Aβ42 [2] was 73 % Ctrl. Further, the “Aβtotal (% Ctrl) _Mean” value in the assay with Aβtotal [4] was 98 % Ctrl.

On to `COc1cc(Nc2ccc(-n3cnc(C)c3)c(OC)n2)c2nc(-c3ccc(F)cc3)n(C)c2c1` [Compound 160], for which the IC50 in the assay on Aβtotal [1] was above 10000 nM; in the assay with Aβ42 [3], 5 nM. Also, the “Aβ42 (% Ctrl) _Mean” value in the assay on Aβ42 [2] is 84 % Ctrl. Further, the “Aβtotal (% Ctrl) _Mean” value with Aβtotal [4] was 78 % Ctrl.

As for `COc1nc(Nc2cccc3c2nc(-c2ccc(F)cc2)n3C(C)C)ccc1-n1cnc(C)n1` [Compound 162], the IC50 was determined as 5620 nM with Aβtotal [1] and 5 nM in the assay on Aβ42 [3]. In addition, in the assay with Aβ42 [2], the “Aβ42 (% Ctrl) _Mean” value is 79 % Ctrl. Moreover, the “Aβtotal (% Ctrl) _Mean” value in the assay with Aβtotal [4] was determined as 97 % Ctrl.

On to `COc1nc(Nc2cccc3c2nc(-c2cc(F)cc(F)c2)n3C)ccc1-n1cnc(C)c1.Cl.Cl.O` [Compound 165], for which the IC50 in the assay with Aβtotal [1] is 3720 nM; with Aβ42 [3], 6 nM. Moreover, the “Aβ42 (% Ctrl) _Mean” value in the assay with Aβ42 [2] amounted to 44 % Ctrl. Besides, the “Aβtotal (% Ctrl) _Mean” value with Aβtotal [4] came to 85 % Ctrl.

For the compound `COc1nc(Nc2cccc3c2nc(-c2cccc(C(F)(F)F)c2)n3C)ccc1-n1cnc(C)c1` [Compound 167], the IC50 in the assay with Aβtotal [1] was found to be 5250 nM; in the assay with Aβ42 [3], 7 nM. Also, the “Aβ42 (% Ctrl) _Mean” value in the assay with Aβ42 [2] is recorded as 46 % Ctrl. Also, in the assay on Aβtotal [4], the “Aβtotal (% Ctrl) _Mean” value is given as 84 % Ctrl.

For the compound `COc1nc(Nc2cccc3c2nc(-c2cccc(NC(C)=O)c2)n3C)ccc1-n1cnc(C)c1` [Compound 174], the IC50 in the assay on Aβtotal [1] (Homo sapiens) was 9550 nM; in the assay on Aβ42 [3] (Homo sapiens), 38 nM. In the assay on Aβ42 [2], the “Aβ42 (% Ctrl) _Mean” value worked out at 90 % Ctrl. Besides, the “Aβtotal (% Ctrl) _Mean” value in the assay with Aβtotal [4] came out at 104 % Ctrl.

With `COc1cc(-c2nc3c(Nc4ccc(-n5cnc(C)c5)c(OC)n4)cccc3n2C)ccc1F` [Compound 184], the results for the IC50 with Aβtotal [1] (Homo sapiens) and with Aβ42 [3] (Homo sapiens) were above 10000 nM and 13 nM, respectively. For the same compound, in the assay on Aβ42 [2], the “Aβ42 (% Ctrl) _Mean” value is on record as 31 % Ctrl. In addition, in the assay with Aβtotal [4], the “Aβtotal (% Ctrl) _Mean” value is given as 88 % Ctrl.

On to `COc1cc(OC)cc(-c2nc3c(Nc4ccc(-n5cnc(C)c5)c(OC)n4)cccc3n2C)c1.Cl.Cl.O` [Compound 186], for which the IC50 in the assay with Aβtotal [1] turned out to be 8320 nM; with Aβ42 [3], 12 nM. For the same compound, the “Aβ42 (% Ctrl) _Mean” value with Aβ42 [2] stood at 38 % Ctrl. Besides, the “Aβtotal (% Ctrl) _Mean” value in the assay on Aβtotal [4] was found to be 88 % Ctrl.

Take `COc1nc(Nc2cccc3c2nc(-c2cc(C(F)(F)F)ccc2F)n3C)ccc1-n1cnc(C)c1` [Compound 187]: the IC50 amounted to 7240 nM with Aβtotal [1] (Homo sapiens) and 36 nM in the assay with Aβ42 [3] (Homo sapiens). Besides, the “Aβ42 (% Ctrl) _Mean” value in the assay on Aβ42 [2] amounted to 75 % Ctrl. The “Aβtotal (% Ctrl) _Mean” value in the assay on Aβtotal [4] turned out to be 96 % Ctrl.

Take `COc1nc(Nc2cccc3c2nc(-c2cccc(OC(F)(F)F)c2)n3C)ccc1-n1cnc(C)c1` [Compound 189]: the IC50 with Aβtotal [1] amounted to 8320 nM; in the assay with Aβ42 [3], 17 nM. In addition, the “Aβ42 (% Ctrl) _Mean” value in the assay with Aβ42 [2] is recorded as 48 % Ctrl. The “Aβtotal (% Ctrl) _Mean” value in the assay on Aβtotal [4] was found to be 95 % Ctrl.

Consider `COc1cc(Nc2ccc(-n3cnc(C)c3)c(OC)n2)c2nc(-c3ccc(F)cc3)n(C)c2n1` [Compound 202], for which the IC50 was above 10000 nM in the assay on Aβtotal [1] and 5 nM in the assay on Aβ42 [3]. The “Aβ42 (% Ctrl) _Mean” value in the assay on Aβ42 [2] stood at 82 % Ctrl. The “Aβtotal (% Ctrl) _Mean” value with Aβtotal [4] stood at 102 % Ctrl.
